Measurements from patent US20080318954A1, “Compounds” (Cyclacel Limited, priority 2004, published 2008).

What was measured:
[1] = test system: glycogen synthase activity in HEK293 cells; assay: Glycogen synthase (GS) assay in HEK293 cells; type: cell-based, human
Method: Cells on 10 cm dishes (Human Embryonic Kidney (HEK) 293 cells, L6 rat myocytes, or 3T3 mouse adipocytes) were treated with different concentrations of GSK3-inhibitors or DMSO vehicle for 90 min. Incubation medium was removed and cells were washed with ice-cold phosphate-buffered saline (PBS) prior to lysis on ice in 50 mM HEPES, pH 7.5, 10 mM EDTA, 100 mM NaF, 5 mM DTT, protease inhibitor cocktail (Sigma). After a freeze/thaw cycle the samples are sonicated for 10 sec and centrifuged at 15,000 g for 10 min at 4° C. Lysate supernatants were snap-frozen on liquid nitrogen and stored at −80° C. Lysates were assayed for glycogen synthase activity in buffer (50 mM Tris-HCl, pH 7.8, 20 mM EDTA, 25 mM NaF, 5 mM DTT, 1% glycogen, 0.3 mM UDP-glucose and 0.06 μCi of [^14C]-UDP-glucose in the presence of 0.1 or 10 mM glucose-6-phosphate. The reaction was carried out for 30 min at 30° C. 70 μL of the reaction mixture (total volume 90 μL) were transferred to a GFC 96-well filter plate (bottom sealed with foil), containing 140 μL 96% ethanol. The GFC plate was incubated for 1 h on ice and than washed with 66% ethanol. To each well 100 μL scintillant liquid was added and the radioactivity of the samples was measured using a scintillation counter (Topcount, HP). Data are expressed as -fold increase in glycogen synthase activity ratios over those of control samples.

[2] = test system: AMPK; assay: Protein kinase panel selectivity screen, AMPK; type: biochemical; details: 1 μM compound; [ATP] 50 μM
Method: (§1) The names of the 29 kinases comprising the selectivity screen, as well as the ATP concentrations used in each kinase case, are given in Table 5. The kinase assays were carried out as described previously.
(§2) Compound XIV at a concentration of 1 μM was screened in the 29-kinase panel (Dundee University) and the results are shown bellow in Table 6.

[3] = target: T1, CDK1/cyclin B1 (Homo sapiens, UniProt P06493); assay: CDK/cyclin kinase assay, CDK1/cyclin B1; type: biochemical
T1 construct: His6 (N); made in house; host or cells: Sf9 insect cells (baculovirus)
T1 sequence (P06493 whole entry): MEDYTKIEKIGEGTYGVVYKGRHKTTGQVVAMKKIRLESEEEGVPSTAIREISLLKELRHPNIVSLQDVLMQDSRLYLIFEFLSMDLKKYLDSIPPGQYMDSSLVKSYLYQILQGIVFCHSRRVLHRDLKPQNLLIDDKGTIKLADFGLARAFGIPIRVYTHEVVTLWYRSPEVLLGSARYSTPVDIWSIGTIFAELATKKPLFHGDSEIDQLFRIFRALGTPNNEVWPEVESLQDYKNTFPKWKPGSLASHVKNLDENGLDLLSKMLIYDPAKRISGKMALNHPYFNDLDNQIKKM
T1 sequence (P14635 whole entry partner): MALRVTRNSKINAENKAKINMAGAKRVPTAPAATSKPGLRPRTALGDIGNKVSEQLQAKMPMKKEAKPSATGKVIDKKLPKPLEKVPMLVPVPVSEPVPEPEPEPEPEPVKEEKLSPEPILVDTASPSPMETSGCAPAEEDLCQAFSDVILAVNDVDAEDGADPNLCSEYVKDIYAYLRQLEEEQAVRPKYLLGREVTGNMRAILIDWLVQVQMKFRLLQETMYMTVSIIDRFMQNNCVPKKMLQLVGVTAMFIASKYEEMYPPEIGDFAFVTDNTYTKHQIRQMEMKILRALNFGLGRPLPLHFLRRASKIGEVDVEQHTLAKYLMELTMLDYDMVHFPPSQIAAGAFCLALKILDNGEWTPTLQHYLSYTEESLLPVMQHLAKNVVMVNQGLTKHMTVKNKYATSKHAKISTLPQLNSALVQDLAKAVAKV
Method: (§3) CDK4/cyclin D1, CDK1/cyclin B, CDK2/cyclin E, CDK2/cyclin A, CDK9/cyclin T1 and CDK7/cyclin H, all with a His6 tag on the N-terminus, were expressed in Sf9 insect cells using an appropriate baculovirus construct. Sf9 culture (1.6×10^6 cells/mL) was infected (MOI of 3) for two days. The cells were harvested by low speed centrifugation and the protein was purified from the insect cell pellet by metal affinity chromatography. In short: the insect cell pellet was lysed in Buffer A (10 mM Tris-HCl pH 8.0, 150 mM NaCl, 0.02% NP-40, 5 mM β-mercaptoethanol, 20 mM NaF, 1 mM Na3VO4, and Sigma Protease Inhibitor Cocktail) by sonication. The soluble fraction was cleared by centrifugation and loaded onto Ni-NTA-Agarose (Qiagen). Non-bound protein was washed off with 300 mM NaCl, 5-15 mM imidazole in buffer A and the bound protein was eluted with buffer A supplemented with 250 mM imidazole. The purified proteins were extensively dialyzed against storage buffer (20 mM HEPES pH 7.4, 50 mM NaCl, 2 mM DTT, 1 mM EDTA, 1 mM EGTA, 0.02% NP-40, 10% v/v glycerol) and stored at −70° C.
Compounds were investigated for their CDK2/cyclin E, CDK2/cyclin A, CDK1/cyclin B, and CDK4/cyclin D1 inhibitory activity. His6-tagged recombinant human cyclin-dependent kinases CDK1/cyclin B1, CDK2/cyclin E, CDK2/cyclin A, and CDK4 were expressed in sf9 insect cells using a baculovirus expression system. Recombinant cyclin D1 was expressed in E. coli. Proteins were purified by metal chelate affinity chromatography to greater than 90% homogeneity. Kinase assays were performed in 96-well plates using recombinant CDK/cyclins. Assays were performed in assay buffer (25 mM β-glycerophosphate, 20 mM MOPS, 5 mM EGTA, 1 mM DTT, 1 mM […], pH 7.4), into which were added 2-4 μg of active enzyme with appropriate substrates (purified histone H1 for CDK1 and CDK2, recombinant GST-retinoblastoma protein (residues 773-928) for CDK4). The reaction was initiated by addition of Mg/ATP mix (15 mM MgCl2+100 μM ATP with 30-50 kBq per well of [γ-^32P]-ATP) and mixtures incubated for 10-45 min, as required, at 30° C. Reactions were stopped on ice, followed by filtration through p81 or GF/C filterplates (for CDK4) (Whatman Polyfiltronics, Kent, UK). After washing 3 times with 75 mM aq orthophosphoric acid, plates were dried, scintillant added and incorporated radioactivity measured in a scintillation counter (TopCount, Packard Instruments, Pangbourne, Berks, UK). Compounds for kinase assays were made up as 10 mM stocks in DMSO and diluted into 10% DMSO in assay buffer. Data was analysed using curve-fitting software (GraphPad Prism version 3.00 for Windows, GraphPad Software, San Diego Calif. USA) to determine IC50 values (concentration of test compound which inhibits kinase activity by 50%).

[4] = target: T2, MAPK2/ERK2 (Homo sapiens, UniProt P28482); assay: Protein kinase panel selectivity screen, MAPK2/ERK2; type: biochemical; details: 1 μM compound; [ATP] 50 μM
T2 construct: Dundee University (panel)
T2 sequence (P28482 whole entry): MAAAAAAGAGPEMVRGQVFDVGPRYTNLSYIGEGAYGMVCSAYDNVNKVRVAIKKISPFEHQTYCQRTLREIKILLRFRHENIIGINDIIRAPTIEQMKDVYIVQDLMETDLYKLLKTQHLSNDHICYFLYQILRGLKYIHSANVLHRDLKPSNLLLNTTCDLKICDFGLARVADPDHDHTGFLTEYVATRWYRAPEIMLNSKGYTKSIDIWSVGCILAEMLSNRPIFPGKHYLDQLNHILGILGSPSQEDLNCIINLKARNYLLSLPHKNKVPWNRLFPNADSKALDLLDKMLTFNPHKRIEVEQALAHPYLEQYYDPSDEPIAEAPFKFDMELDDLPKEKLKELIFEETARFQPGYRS
Method: as §1, §2

[5] = target: T3, CDK7/cyclin H (Homo sapiens, UniProt P50613); assay: CDK7/cyclin H inhibition constant; type: biochemical
T3 construct: His6 (N); made in house; host or cells: Sf9 insect cells (baculovirus)
T3 sequence (P50613 whole entry, species assumed): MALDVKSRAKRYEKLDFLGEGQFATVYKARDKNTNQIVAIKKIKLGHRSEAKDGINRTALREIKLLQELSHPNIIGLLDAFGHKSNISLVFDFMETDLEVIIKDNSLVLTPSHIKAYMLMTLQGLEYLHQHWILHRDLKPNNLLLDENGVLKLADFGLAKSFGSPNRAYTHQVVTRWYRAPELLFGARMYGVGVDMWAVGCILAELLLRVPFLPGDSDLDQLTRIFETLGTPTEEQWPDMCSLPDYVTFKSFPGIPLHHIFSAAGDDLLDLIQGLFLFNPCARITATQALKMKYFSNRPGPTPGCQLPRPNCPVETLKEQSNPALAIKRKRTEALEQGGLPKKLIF
T3 sequence (P51946 whole entry partner, species assumed): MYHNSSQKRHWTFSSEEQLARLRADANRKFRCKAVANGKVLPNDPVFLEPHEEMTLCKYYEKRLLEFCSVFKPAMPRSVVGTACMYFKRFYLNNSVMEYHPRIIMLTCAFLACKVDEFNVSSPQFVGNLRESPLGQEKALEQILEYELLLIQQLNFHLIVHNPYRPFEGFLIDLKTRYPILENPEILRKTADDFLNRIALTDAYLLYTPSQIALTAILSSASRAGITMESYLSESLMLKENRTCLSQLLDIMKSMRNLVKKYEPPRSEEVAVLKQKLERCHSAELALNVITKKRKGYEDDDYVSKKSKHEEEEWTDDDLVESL
Method: as §3
Intrinsic inhibition constants (Ki) for example compound XIV against a number of Ser/Thr kinases were determined and are summarized in Table 3.

[6] = test system: ZDF fa/fa rats; assay: Oral glucose tolerance test (OGTT); type: in vivo, rat; details: 5 mg/kg i.v. at −270 and −30 min, 2 g/kg oral glucose
Method: Test compound was administrated in 10-11 weeks old ZDF rats at 5 mg/kg i.v. at −270 and −30 min. At 0 min 2 g/kg oral glucose load was given and blood samples were collected at 15 min intervals to determine the blood glucose levels.
For the OGTT male ZDF fa/fa rats (Charles River, USA), 10-11 weeks old, were used. After 15 h fasting the animals were dosed intravenously with 5 mg/kg test compound in dosing vehicle, or with dosing vehicle (10% DMSO, 90% PEG-400) only at −270 and −30 min. At 0 min the rats were given 2 g/kg glucose by oral gavage. Plasma samples were taken before and every 15 min after the OGTT for determination of blood glucose.

Clc1ccc(Nc2nccc(-c3nccs3)n2)cn1 [Compound XIV, (6-Chloro-pyridin-3-yl)-(4-thiazol-2-yl-pyrimidin-2-yl)-amine]
Activation of GS compared with 40 mM LiCl ([1]; HEK293 cells, 5 μM): comparable to that induced by 40 mM LiCl | Activity of glycogen synthase (fractional velocity) ([1]; HEK293 cells, ratio of activity at 0.1 and 10 mM glucose-6-phosphate): increased the activity of glycogen synthase | EC50 ([1]; Homo sapiens, HEK293, from dose-response curves, read-out: EC50 activation of glycogen synthase): 1.5 ± 0.6 µM | fold induction at 0.1 µM ([1]; Homo sapiens, HEK293 cells, 0.1 μM): 0.9 | fold induction at 0.5 µM ([1]; Homo sapiens, HEK293 cells, 0.5 μM): 1.1 | fold induction at 1 µM ([1]; Homo sapiens, HEK293 cells, 1 μM): 1.6 | fold induction at 5 µM ([1]; Homo sapiens, HEK293 cells, 5 μM (Table 4)): 3.3 | fold induction at 5 µM ([1]; Homo sapiens, In HEK293 cells at [compound] = 5 μM (Table 2)): 3.7 | % Activity AMPK [2]: 82 ± 5% | Fold selectivity for GSK3 over CDK1/cyclin B ([3]; from Ki): >6,250 fold | Ki ([3]; read-out: Ki CDK1/cyclin B): > 100 µM | IC50 ([3]; read-out: Kinase inhibition IC50 CDK1/B1): > 100 µM | activity at 1 µM [4]: 84 ± 8% | Ki [5]: > 50 µM | Fold selectivity for GSK3 over CDK7/cyclin H ([5]; from Ki): >3,125 fold | Decrease of absolute AUC level (blood glucose) [6]: 29% | Decrease of reactive AUC level (blood glucose) [6]: 44% | Glucose tolerance [6]: improved the glucose tolerance in ZDF rats significantly
